These results are taken from paper PMC8375242 (International Journal of Nanomedicine, 2021).

The term IC50 denotes the concentration that inhibits the measured activity by half. Broadly, the inhibition is the share of the control response that was lost under treatment.

Read-outs that look alike come from different tables or passages of the source.

Data set [1] concerns human ovarian cancer (SKOV-3). The data set can be described thus: MTT cytotoxicity assay, SKOV-3. It is filed as cell-based. A general note: Tetrazolium assays rely on reduction of a dye to a coloured formazan, in cell work by metabolically active cells.
Data set [2] concerns murine colon cancer (CT-26). In words: MTT cytotoxicity assay, CT-26. The note with it: read-out: IC50 CT-26 (48 h). It is filed as cell-based.
Data set [3] relates to human lung cancer (A549). In words: MTT cytotoxicity assay, A549. The note with it: read-out: IC50 A549 (48 h). It is filed as cell-based.
Data set [4] relates to cisplatin-resistant cell line A549R. In words: MTT cytotoxicity assay, A549R. The settings on record: for RF (resistant factor): RF=IC50(A549R)/IC50(A549); for IC50: read-out: IC50 A549R (48 h). It is filed as cell-based, human.
The subject of data set [5] is human normal liver cell line LO-2. The data set can be described thus: MTT cytotoxicity assay, normal cell LO-2. It is filed as cell-based. The note with it: for IC50: read-out: IC50 LO-2 (48 h).
In data set [6] the test system is CT-26 homograft tumors. The data set can be described thus: In vivo antitumor assay, CT-26 homograft. Set-up: species or system BALB/c mice. The settings on record: days 6, 9, 12, 14, day 15, saline 1586.
The target in data set [7] is T1, rhCOX-2 (Homo sapiens, UniProt P35354).
T1 sequence (P35354 18-604): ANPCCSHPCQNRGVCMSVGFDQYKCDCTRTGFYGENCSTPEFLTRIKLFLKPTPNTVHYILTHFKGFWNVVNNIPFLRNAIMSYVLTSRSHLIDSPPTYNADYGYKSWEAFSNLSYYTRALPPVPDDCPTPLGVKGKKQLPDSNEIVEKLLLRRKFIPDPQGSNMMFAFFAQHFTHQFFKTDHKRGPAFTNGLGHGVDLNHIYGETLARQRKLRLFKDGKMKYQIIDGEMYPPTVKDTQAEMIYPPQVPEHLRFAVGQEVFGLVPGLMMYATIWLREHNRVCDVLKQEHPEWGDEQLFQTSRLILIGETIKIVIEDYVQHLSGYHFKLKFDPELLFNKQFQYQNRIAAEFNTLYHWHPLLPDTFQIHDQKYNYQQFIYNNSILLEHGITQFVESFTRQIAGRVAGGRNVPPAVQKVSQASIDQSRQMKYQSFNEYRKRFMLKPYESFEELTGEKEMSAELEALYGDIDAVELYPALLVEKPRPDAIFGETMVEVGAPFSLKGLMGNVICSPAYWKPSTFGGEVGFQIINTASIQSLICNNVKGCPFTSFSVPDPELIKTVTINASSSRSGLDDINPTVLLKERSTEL
The data set can be described thus: biochemical. The settings on record: read-out: COX-2 inhibition.

Data set [8] is described as follows: Toxicity in vivo. Details: species or system BALB/c mice. The settings on record: 4 mg Pt/kg (1-NPs, oxaliplatin i.v.; 1 i.p.).
A short description of data set [9]: Serum AST, ALT, BUN and CRE detection. It is filed as in vivo, BALB/c mice. The note with it: 4 mg Pt/kg (1-NPs, oxaliplatin i.v.; 1 i.p.), vs saline.
For data set [10], the system named is iNOS. The data set can be described thus: Immunohistochemical detection of iNOS in tumor tissues. Type of data set: in vivo, BALB/c mice. The note with it: 4 mg Pt/kg (1-NPs, oxaliplatin i.v.), immunohistochemistry.
For data set [11], the system named is MMP-9. The data set can be described thus: Immunohistochemical detection of MMP-9 in tumor tissues. The note with it: 4 mg Pt/kg (1-NPs, oxaliplatin i.v.; 1 i.p.), immunohistochemistry; saline 16.3±1.9. It is filed as in vivo, BALB/c mice.
[12] abbreviates: read-out: IC50 SKOV-3 (48 h), 48 h incubation.
Where [13] appears, read: read-out: IC50 SKOV-3 (72 h), 72 h incubation.
The mark [14] stands for this setting: MTT, 48 h incubation, normal liver cell.

For `N.N.[Cl][Pt][Cl]` [cisplatin], the half-maximal inhibitory concentration (IC50) in data set [1] (setting [12]) amounted to 1.9 ± 0.4 µM; in data set [1] (setting [13]), 1.2 ± 0.3 µM; in [2] (MTT, 48 h incubation), 1.2 ± 0.3 µM; in [3] (MTT, 48 h incubation), 2.8 ± 0.6 µM; in data set [4] (MTT, 48 h incubation), 7.1 ± 1.3 µM; in [5] (setting [14]) it was 3.4 ± 1.2 µM. In addition, the “RF (resistant factor)” value is 2.57 in [4] and 2.6 in data set [4] (listed as CDDP). In addition, the tumor volume in data set [6] (2 mg Pt/kg (2-NPs, cisplatin i.v.; 2 i.p.)) came to 399 mm^3.

Regarding `COc1ccc2cc([C@H](C)C(=O)O)ccc2c1` [naproxen], the 50% inhibitory concentration (IC50) in data set [2] (Mus musculus, CT26, 48 h) is over 100 µM; in data set [3] (Homo sapiens, A549, 48 h) it was over 100 µM; in data set [4] (Homo sapiens, 48 h) it was over 100 µM; in [5] (Homo sapiens, 48 h), over 100 µM. For the same compound, the inhibition at 40 µM in [7] turned out to be 74%.

Turning to `O=C1[O][Pt]2([NH][C@@H]3CCCC[C@H]3[NH]2)[O]C1=O` [oxaliplatin], the concentration for half-maximal inhibition (IC50) came to 5.9 ± 1.3 µM in data set [1] (setting [12]); 7.5 ± 1.8 µM in [1] (setting [13]); 4.1 ± 0.7 µM in data set [2] (MTT, 48 h incubation); 6.7 ± 1.8 µM in [3] (MTT, 48 h incubation); 2.4 ± 0.6 µM in data set [4] (MTT, 48 h incubation); 4.8 ± 0.7 µM in [5] (setting [14]). In addition, the “RF (resistant factor)” value in [4] was 0.4. The “SI (selectivity index)” value in [5] (SI = IC50(LO-2)/Average IC50) amounted to 1.0. Further, the tumor volume in data set [6] (4 mg Pt/kg (1-NPs, oxaliplatin i.v.; 1 i.p.)) came out at 477 mm^3. For the same compound, the “signs of toxicity during treatment” value in data set [8] was “anorexia and dyskinesia”. The “H&E histology of heart, liver, spleen, lung and kidney” value in data set [8] (vs saline) is “no appreciable histological differences”. In data set [8] (vs saline), the spleen weight index entry is given as “remarkable suppressions of spleen”. The “ALT and AST levels in serum” value in data set [9] was “significant enhanced ALT and AST levels”. Besides, the “expression of iNOS in tumor tissues” value in data set [10] is recorded as “significantly upregulates iNOS”. In [11], the “expression of MMP-9, mean optical density” value was determined as 6.5±0.5%.
